The values that follow come from paper PMC1079881, “Differential modulation of microglia superoxide anion and thromboxane B2 generation by the marine manzamines” (BMC Pharmacology, 2005).

Broadly, the IC50 is the midpoint of a concentration-inhibition curve. Higher therefore signals weaker potency.

For series [1], the target named is hypoxanthine-xanthine oxidase system (Homo sapiens, UniProt P47989). As to the kind of experiment: Cell-free O2^- generation by hypoxanthine-xanthine oxidase system (scavenging test). To be noted: control (DMSO) 12 ± 1.1, test concentration not given. Format: biochemical. Here is the method:
A standard hypoxanthine-xanthine oxidase system was used as a cell-free source of O2^-. O2^- was generated by incubation of purified xanthine oxidase (0.02 Units/ml) with hypoxanthine (1.5 mM) at 37°C [21]. O2^- formation was assessed spectrophotometrically as the increase in absorbance at 550 nm associated with the SOD (30 U/mL)-inhibitable reduction FCC (50 μM) as described above for rat microglia O2^- generation and expressed in nmoles/30 minutes.

Details of series [2]: method as in PMID 10817722. As to conditions: cited from earlier work.
Series [3] concerns LPS-activated rat neonatal microglia. As to the kind of experiment: OPZ-stimulated TXB2 generation by LPS-activated rat neonatal microglia (immunoassay). Format: cell-based. Here is the method:
(§1) All experiments were performed with adherence to the National Institutes of Health guidelines on the use of experimental animals and with protocols approved by Midwestern University's Research and Animal Care Committee. To isolate rat neonatal microglia, cerebral cortices of 1–2 day-old Sprague-Dawley rats purchased from Harlan (Indianapolis, IN) were surgically removed and placed in cold DMEM + 10% FBS + 120 U/ml P and 12 μg/ml S, the meninges carefully removed, and brain tissue minced and dissociated with trypsin-EDTA at 36°C for 3–5 min. The mixed astroglial cell suspension was plated in either 75- or 162-cm^2 vented cell culture flasks with DMEM medium supplemented with 10% FBS + 120 U/ml P + 12 μg/ml S and grown in a humidified 5% CO2 incubator at 36°C for 12–14 days. […] Microglia were characterized as described earlier.
(§2) To study the effects of manzamines A, B, C, D, E and F on the generation of TXB2 and O2^-, rat neonatal microglia (2 × 10^5 cells/24-well cell culture clusters) were treated to the following protocol. Seventeen hours prior to the experiments, microglia cells were treated with LPS (0.3 ng/ml) in a final volume of 1 ml of DMEM supplemented with 10% FBS + 120 U/ml P + 12 μg/ml. […] O2^-, TXB2 and lactate dehydrogenase (LDH) release were assayed as described below.
(§3) Following the incubation of LPS-activated microglia with HBSS, manzamines or vehicle as explained above, PMA- (1 μM) or OPZ- (0.5 mg/mL)triggered TXB2 generation in the culture supernatants was measured using immunoassays (Cayman Chemical, Ann Arbor, MI) as indicated by the manufacturer's protocol. Results were expressed as pg/mL produced after 70 min of PMA or OPZ stimulation.

For series [4] the test system is unchanged. In words: OPZ-stimulated O2^- generation by LPS-activated rat neonatal microglia (SOD-inhibitable FCC reduction). Format: cell-based. Here is the method:
as §1, §2
(§4) O2^- generation was determined by the SOD-inhibitable reduction of FCC [23]. […] All experimental treatments were run in triplicate and in a final volume of 1 ml. Changes in FCC absorbance were measured at 550 nm using a Beckman DU-650 spectrophotometer.

The test system is the same in series [5]. As to the kind of experiment: PMA-stimulated TXB2 generation by LPS-activated rat neonatal microglia (immunoassay). Format: cell-based. Here is the method: as §1, §2, §3
For series [6] the test system is unchanged. In words: PMA-stimulated O2^- generation by LPS-activated rat neonatal microglia (SOD-inhibitable FCC reduction). Format: cell-based. As to conditions: Rattus norvegicus, Microglia. Here is the method: as §1, §2, §4
Setting [7] is: Rattus norvegicus, Microglia, OPZ 0.5 mg/mL, 70 min, LPS 0.3 ng/mL 17 h.

hypoxanthine-xanthine oxidase system, sequence (P47989 whole entry): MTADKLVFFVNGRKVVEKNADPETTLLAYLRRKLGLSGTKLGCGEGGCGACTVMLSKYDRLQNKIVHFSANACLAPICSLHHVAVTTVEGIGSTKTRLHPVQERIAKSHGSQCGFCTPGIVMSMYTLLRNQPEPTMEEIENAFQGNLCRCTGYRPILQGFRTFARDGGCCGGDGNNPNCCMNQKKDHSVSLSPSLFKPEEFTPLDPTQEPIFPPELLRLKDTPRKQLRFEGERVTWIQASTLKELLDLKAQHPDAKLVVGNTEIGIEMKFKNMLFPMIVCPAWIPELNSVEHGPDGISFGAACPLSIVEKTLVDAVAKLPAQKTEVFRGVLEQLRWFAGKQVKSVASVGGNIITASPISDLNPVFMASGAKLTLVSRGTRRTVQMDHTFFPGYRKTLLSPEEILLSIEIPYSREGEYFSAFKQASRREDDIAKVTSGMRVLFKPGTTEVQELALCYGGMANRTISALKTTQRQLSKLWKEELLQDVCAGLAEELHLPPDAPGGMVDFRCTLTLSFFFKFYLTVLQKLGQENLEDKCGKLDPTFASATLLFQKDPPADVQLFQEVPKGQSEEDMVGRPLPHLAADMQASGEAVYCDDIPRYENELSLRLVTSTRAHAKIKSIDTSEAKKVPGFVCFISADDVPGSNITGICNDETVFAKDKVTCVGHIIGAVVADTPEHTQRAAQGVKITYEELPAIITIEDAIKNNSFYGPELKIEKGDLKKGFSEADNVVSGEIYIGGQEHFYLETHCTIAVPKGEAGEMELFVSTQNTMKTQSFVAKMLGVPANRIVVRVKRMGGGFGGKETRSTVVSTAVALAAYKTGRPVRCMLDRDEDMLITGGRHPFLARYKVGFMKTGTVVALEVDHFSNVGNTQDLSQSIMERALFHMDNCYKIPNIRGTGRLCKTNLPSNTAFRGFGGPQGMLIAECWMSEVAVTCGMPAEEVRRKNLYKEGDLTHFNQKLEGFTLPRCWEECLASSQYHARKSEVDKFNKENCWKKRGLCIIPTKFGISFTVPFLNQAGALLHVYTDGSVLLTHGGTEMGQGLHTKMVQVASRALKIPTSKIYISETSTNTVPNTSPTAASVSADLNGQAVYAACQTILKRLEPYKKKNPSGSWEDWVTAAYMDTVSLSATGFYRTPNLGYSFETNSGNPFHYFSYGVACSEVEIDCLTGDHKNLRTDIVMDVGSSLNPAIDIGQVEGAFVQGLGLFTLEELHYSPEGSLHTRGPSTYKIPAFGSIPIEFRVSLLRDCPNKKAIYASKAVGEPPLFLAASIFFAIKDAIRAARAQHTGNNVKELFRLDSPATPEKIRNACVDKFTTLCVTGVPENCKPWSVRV

Take `O[C@]12C=C(c3nccc4c3[nH]c3ccccc34)[C@@H]3CCN(CCCC/C=C\CC1)C[C@@]31C[C@@H]3/C=C\CCCCN3[C@H]12` [MZA, manzamine A]: in series [1], the “O2^- generated by hypoxanthine-xanthine oxidase system” value came to 15.3 ± 4.4 nmoles/30 min. Also, the “in vivo toxicity” value in series [2] is recorded as “lack of significant in vivo toxicity”. The IC50 was 3160 nM in series [3] (setting [7]); over 10000 nM in series [4] (setting [7]); under 16 nM in series [5] (Rattus norvegicus, Microglia, PMA 1 μM, 70 min, LPS 0.3 ng/mL 17 h, manzamine added 15 min before); 100 nM in series [6] (PMA 1 μM, 70 min, LPS 0.3 ng/mL 17 h). Further, the inhibition at 10 µM in series [3] (Rattus norvegicus, Microglia, at 10 μM) came to 58%; in series [5] (Rattus norvegicus, Microglia, at 10 μM, read-out: maximum inhibition of PMA-stimulated TXB2 generation), 95.5%; in series [6] (at 10 μM), 55.9 ± 6.1%. Also, in series [3] (at 10 μM), the “OPZ-stimulated TXB2 released” value was 1,927 ± 474 pg of TXB2 per 200,000 microglia per 70 min. The “OPZ-stimulated O2^- released” value in series [4] (at 10 μM) is on record as 9.5 ± 1 O2^- nmol per 200,000 microglia per 70 min. Also, the “effect on OPZ-stimulated O2^- generation” value in series [4] (even at 10 μM) was “did not appear to affect”. In series [5] (at 10 μM), the “PMA-stimulated TXB2 released” value is 78.3 ± 45 pg of TXB2 per 200,000 microglia per 70 min.
